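Step 1: Grow cells in 96-well plates. Step 2: Expose to compound for 48 hours at 5 concentrations. Step 3: Interpolate endpoints linearly; if unreached, use highest concentration. The concentration for 50% growth inhibition is given as GI50.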 Activity calls are given as the source filed them. No stated cut-off is given here; in the data, active = GI50 up to about 1.1 µM and inactive = higher.
Legend:
Assay in all cases: NCI anticancer screen, dose series, 48 h
MCF7 = tested on: MCF7
NCI/ADR-RES = tested on: NCI/ADR-RES
ACHN = tested on: ACHN
HOP-62 = tested on: HOP-62
MOLT-4 = tested on: MOLT-4
HCT-15 = tested on: HCT-15
Malme-3M = tested on: Malme-3M
SF-539 = tested on: SF-539
M14 = tested on: M14
NCI-H226 = tested on: NCI-H226
SN12C = tested on: SN12C
CAKI-1 = tested on: CAKI-1
OVCAR-5 = tested on: OVCAR-5
SK-OV-3 = tested on: SK-OV-3
T47D = tested on: T47D
PC-3 = tested on: PC-3
SNB-75 = tested on: SNB-75
A498 = tested on: A498
UO-31 = tested on: UO-31
HCT-116 = tested on: HCT-116
EKVX = tested on: EKVX
BT-549 = tested on: BT-549
NCI-H23 = tested on: NCI-H23
UACC-62 = tested on: UACC-62
DU-145 = tested on: DU-145
HL-60 = tested on: HL-60
COLO 205 = tested on: COLO 205
OVCAR-4 = tested on: OVCAR-4
SK-MEL-5 = tested on: SK-MEL-5
UACC-257 = tested on: UACC-257
MDA-N = tested on: MDA-N
SK-MEL-28 = tested on: SK-MEL-28
SF-268 = tested on: SF-268
KM12 = tested on: KM12
NCI-H522 = tested on: NCI-H522
SK-MEL-2 = tested on: SK-MEL-2
Hs-578T = tested on: Hs-578T
U-251 = tested on: U-251
A549 = tested on: A549
OVCAR-8 = tested on: OVCAR-8
SW-620 = tested on: SW-620
CCRF-CEM = tested on: CCRF-CEM
MDA-MB-435 = tested on: MDA-MB-435
RXF 393 = tested on: RXF 393
LOX IMVI = tested on: LOX IMVI
HT-29 = tested on: HT-29
MDA-MB-231 = tested on: MDA-MB-231
TK-10 = tested on: TK-10
786-0 = tested on: 786-0
SF-295 = tested on: SF-295
SNB-19 = tested on: SNB-19
IGROV-1 = tested on: IGROV-1
HCC 2998 = tested on: HCC 2998
RPMI-8226 = tested on: RPMI-8226
OVCAR-3 = tested on: OVCAR-3
K562 = tested on: K562
SR = tested on: SR
NCI-H460 = tested on: NCI-H460

Which results are given for `CCOC(=O)C1(C/C=C/CBr)CCc2ccccc2C1=O` (stereo not drawn)?
GI50 (MCF7): 7.89 µM (inactive); GI50 (NCI/ADR-RES): 22 µM (inactive); GI50 (ACHN): 13.6 µM (inactive); GI50 (HOP-62): 16.2 µM (inactive); GI50 (MOLT-4): 9.1 µM (inactive); GI50 (HCT-15): 19.7 µM; GI50 (Malme-3M): 19.1 µM (inactive); GI50 (SF-539): 18.1 µM (inactive); GI50 (M14): 13.1 µM (inactive); GI50 (NCI-H226): 6.95 µM (inactive); GI50 (SN12C): 15.1 µM (inactive); GI50 (CAKI-1): 15.1 µM (inactive); GI50 (OVCAR-5): 29 µM (inactive); GI50 (SK-OV-3): 19 µM (inactive); GI50 (T47D): 14.3 µM (inactive); GI50 (PC-3): 15.7 µM (inactive); GI50 (SNB-75): 10.4 µM (inactive); GI50 (A498): 18.5 µM (inactive); GI50 (UO-31): 14.3 µM (inactive); GI50 (HCT-116): 13.3 µM (inactive); GI50 (EKVX): 27.5 µM (inactive); GI50 (BT-549): 16.7 µM (inactive); GI50 (NCI-H23): 16.8 µM (inactive); GI50 (UACC-62): 10.6 µM (inactive); GI50 (DU-145): 14 µM (inactive); GI50 (HL-60): 6.3 µM (inactive); GI50 (COLO 205): 17.2 µM (inactive); GI50 (OVCAR-4): 13.6 µM (inactive); GI50 (SK-MEL-5): 12 µM (inactive); GI50 (UACC-257): 15.9 µM (inactive); GI50 (MDA-N): 14.4 µM (inactive); GI50 (SK-MEL-28): 17.5 µM (inactive); GI50 (SF-268): 18.5 µM (inactive); GI50 (KM12): 15.5 µM (inactive); GI50 (NCI-H522): 12.6 µM (inactive); GI50 (SK-MEL-2): 14.1 µM (inactive); GI50 (Hs-578T): 30.8 µM (inactive); GI50 (U-251): 14.1 µM (inactive); GI50 (A549): 14 µM (inactive); GI50 (OVCAR-8): 15.7 µM (inactive); GI50 (SW-620): 14.5 µM (inactive); GI50 (CCRF-CEM): 5.25 µM (inactive); GI50 (MDA-MB-435): 14.3 µM (inactive); GI50 (RXF 393): 6.03 µM (inactive); GI50 (LOX IMVI): 6.37 µM (inactive); GI50 (HT-29): 21.9 µM (inactive); GI50 (MDA-MB-231): 18.2 µM (inactive); GI50 (TK-10): 10.4 µM (inactive); GI50 (786-0): 16.2 µM (inactive); GI50 (SF-295): 17.3 µM (inactive); GI50 (SNB-19): 14.4 µM (inactive); GI50 (IGROV-1): 11.1 µM (inactive)

With `O=C(Nc1ccccc1F)c1cc2ccc(O)cc2o/c1=N\c1ccccc1F` as the compound, how does the GI50 (MCF7) read?
Its GI50 is 3.2 µM (inactive).

What about the GI50 (NCI/ADR-RES) of the same compound?
Its GI50 is 2.42 µM (inactive).

And the GI50 (ACHN)?
The GI50 was 2.23 µM (inactive).

And the GI50 (HOP-62)?
Its GI50 is 2.19 µM (inactive).

What about the GI50 (MOLT-4) of the same compound?
The GI50 was 1.74 µM (inactive).

And the GI50 (HCT-15)?
The GI50 was 2.47 µM.

And the GI50 (Malme-3M)?
The GI50 was 1.73 µM (inactive).

And the GI50 (SF-539)?
The GI50 was 3.33 µM (inactive).

And the GI50 (M14)?
The GI50 was 2.55 µM (inactive).

What about the GI50 (CAKI-1) of the same compound?
Its GI50 is 1.98 µM (inactive).

What about the GI50 (OVCAR-5) of the same compound?
The GI50 was 4.5 µM (inactive).

And the GI50 (SK-OV-3)?
The GI50 was 25.4 µM (inactive).

What about the GI50 (HCC 2998) of the same compound?
The GI50 was 2.99 µM (inactive).

And the GI50 (T47D)?
Its GI50 is 1.96 µM (inactive).

And the GI50 (PC-3)?
The GI50 was 2.58 µM (inactive).

What about the GI50 (RPMI-8226) of the same compound?
Its GI50 is 2.04 µM (inactive).

And the GI50 (UO-31)?
Its GI50 is 1.93 µM (inactive).

What about the GI50 (OVCAR-3) of the same compound?
The GI50 was 2.1 µM (inactive).

And the GI50 (HCT-116)?
The GI50 was 2.06 µM (inactive).

And the GI50 (EKVX)?
Its GI50 is 2.75 µM (inactive).

And the GI50 (K562)?
Its GI50 is 2.15 µM (inactive).

What about the GI50 (BT-549) of the same compound?
Its GI50 is 2.83 µM (inactive).

And the GI50 (NCI-H23)?
The GI50 was 2.17 µM (inactive).

What about the GI50 (UACC-62) of the same compound?
Its GI50 is 2.37 µM (inactive).

What about the GI50 (DU-145) of the same compound?
Its GI50 is 1.95 µM (inactive).

And the GI50 (HL-60)?
Its GI50 is 2.09 µM (inactive).

And the GI50 (COLO 205)?
The GI50 was 21.8 µM (inactive).

What about the GI50 (OVCAR-4) of the same compound?
The GI50 was 1.85 µM (inactive).

And the GI50 (SK-MEL-5)?
Its GI50 is 1.77 µM (inactive).

And the GI50 (UACC-257)?
Its GI50 is 2.74 µM (inactive).

What about the GI50 (MDA-N) of the same compound?
Its GI50 is 2.29 µM (inactive).

What about the GI50 (SK-MEL-28) of the same compound?
The GI50 was 2.45 µM (inactive).

What about the GI50 (SF-268) of the same compound?
The GI50 was 2.27 µM (inactive).

And the GI50 (KM12)?
The GI50 was 1.98 µM (inactive).

And the GI50 (NCI-H522)?
Its GI50 is 1.44 µM (inactive).

What about the GI50 (SK-MEL-2) of the same compound?
Its GI50 is 1.84 µM (inactive).

And the GI50 (Hs-578T)?
The GI50 was 2.33 µM (inactive).

And the GI50 (U-251)?
The GI50 was 1.93 µM (inactive).

And the GI50 (A549)?
The GI50 was 2.31 µM (inactive).

And the GI50 (OVCAR-8)?
Its GI50 is 1.77 µM (inactive).

What about the GI50 (SW-620) of the same compound?
Its GI50 is 2.88 µM (inactive).

What about the GI50 (CCRF-CEM) of the same compound?
The GI50 was 1.5 µM (inactive).

And the GI50 (MDA-MB-435)?
The GI50 was 2.03 µM (inactive).

And the GI50 (SR)?
The GI50 was 1.87 µM (inactive).

And the GI50 (LOX IMVI)?
The GI50 was 2.57 µM (inactive).

And the GI50 (HT-29)?
Its GI50 is 17.2 µM (inactive).

And the GI50 (NCI-H460)?
The GI50 was 2.25 µM (inactive).

What about the GI50 (786-0) of the same compound?
The GI50 was 1.79 µM (inactive).

What about the GI50 (SF-295) of the same compound?
The GI50 was 2.84 µM (inactive).

And the GI50 (SNB-19)?
Its GI50 is 4.25 µM (inactive).

And the GI50 (IGROV-1)?
Its GI50 is 2.23 µM (inactive).
